Read-outs that look alike come from different tables or passages of the source.
Assays:
[1] = Steady state pharmacokinetics of ABT-894 after multiple oral doses; assay type: in vivo, human; conditions: for Cave / Cmin / Cmax / AUC: multiple doses, steady state; for Tmax: QD or BID
Experimental: Steady state pharmacokinetic parameters of ABT-894 were determined in randomized, double-blind, placebo-controlled, parallel-design or crossover-design studies conducted with ABT-894. In these studies ABT-894 or matching placebo was administered orally either once daily (QD) or twice daily (BID) to subjects and serial blood samples were collected in order to determine ABT-894 plasma concentrations and pharmacokinetic parameters.
As used herein, Cmax refers to peak plasma concentration of a therapeutic agent, in this case ABT-894, under steady state conditions.
As used herein, Cave refers to average plasma concentration of a therapeutic agent. in this case ABT-894, under steady state conditions.
As used herein, Cmin refers to the minimum plasma concentration of a therapeutic agent, in this case ABT-894, under steady state conditions.
As used herein. Tmax refers to the time required to reach peak concentration.
As used herein, AUC12 refers to the area under the curve determined for 12 hours.
As used herein. AUC24 refers to the area under the curve determined for 24 hours.

adults with ADHD = conditions: human, in vivo, 4 weeks
Experimental: During each visit, blood pressure, heart rate, weight, medication accountability and tolerability, and adverse effects were assessed.
The safety dataset consisted of all subjects who took at least one dose of study drug. The reasons for discontinuation and the treatment-emergent adverse events were summarized by the treatment under which the discontinuation or event was reported.
Treatment-emergent adverse events were those that began or worsened following the first dose of study drug in Period 1. Adverse event monitoring was conducted at each study visit and until 30 days following discontinuation of study drug. Other routine safety assessments included vital signs, electrocardiograms, physical examinations, brief neurological examinations and laboratory tests.

Compound: Clc1cc(N2C[C@@H]3CN[C@@H]3C2)cnc1Cl [ABT-894, 3-(5,6-Dichloro-pyridin-3-yl)-1S,5S-3,6-diazabicyclo[3.2.0]heptane]
- Cave ([1]; 2 mg QD, plasma): about 2 ng/mL
- Cmin ([1]; 2 mg QD, plasma): about 0.3 ng/mL
- Cave ([1]; 4 mg BID, plasma): 6 to 10 ng/mL
- Cmin ([1]; 4 mg BID, plasma): 2 to 4 ng/mL
- Cmax ([1]; human, oral, 2 mg QD, plasma): ~5 ng/mL
- AUC ([1]; human, oral, 2 mg QD, plasma, read-out: AUC24): ~46 ng·h/mL
- Cmax ([1]; human, oral, 4 mg BID, plasma): 11 to 15 ng/mL
- AUC ([1]; human, oral, 4 mg BID, plasma, read-out: AUC12): 72 to 114 ng·h/mL
- Tmax ([1]; human, plasma, po, read-out: Tmax): 2 to 4 h
- Tmax ([1]; oral): 2 to 3 h
- Influenza-like illness, % of subjects (adults with ADHD): (0) %
- Influenza-like illness, number of subjects (adults with ADHD): 0 subjects
